{"source": "patent US9056209B2", "about": "“Apigenin-containing composition” (Kao Corporation, priority 2009, dated 2015)", "experiment": "Evaluation of stability of apigenin in composition (apigenin retention ratio by HPLC)", "assay_type": "physicochemical", "conditions": "for Apigenin retention ratio (amount of apigenin stored at 50° C./amount of apigenin stored at −5° C.): apigenin about 9 ppm, stored one month", "description": "Twenty gram of Roman chamomile was extracted with 200 mL of 50% butanediol for 7 days at room temperature, and then the extract was filtered to obtain 155 mL of a Roman chamomile extract. The evaporation residue in 1 mL of the extract was 18.6 mg, and the amount of apigenin in 1 mL of the extract was 305 ppm. This extract was used as the apigenin-containing extract in the following experiments. BHT was added to each of the solutions of various pH conditions, in an amount of 0, 1, 10, 100 and 500 ppm, respectively, and thus test solutions (final apigenin concentration: about 9 ppm) were prepared. The respective test solutions were stored for one month under the conditions of −5° C. and 50° C., and then the amount of apigenin in each of the solutions was measured by HPLC (Inertsil ODS-3 (internal diameter 3.0 mm, length 150 mm, particle size 5 μm) manufactured by GL Sciences, Inc., eluent: 50% aqueous solution of 25 mM potassium dihydrogen phosphate/50% methanol, column temperature: 40° C., detection: UV 340 nm). The ratio of the amount of apigenin stored at 50° C. with respect to that stored at −5° C. was determined as the apigenin retention ratio."}
{"smiles": "O=c1cc(-c2ccc(O)cc2)oc2cc(O)cc(O)c12", "note": "[Apigenin, apigenin]", "values": [{"measurement": "apigenin retention ratio (in words)", "setting": "mass ratio apigenin/BHT about 1 or greater, or pH of the solution less than 7, storage for a long time", "value": "high retention ratios were maintained"}, {"measurement": "apigenin retention ratio (in words)", "setting": "mass ratio apigenin/BHT about less than 1 (BHT 10 ppm or more) and pH 7 or higher", "value": "the apigenin retention ratio decreased"}, {"measurement": "Apigenin retention ratio (amount of apigenin stored at 50° C./amount of apigenin stored at −5° C.)", "setting": "pH 6, BHT 0 ppm", "value": 103, "unit": "%"}, {"measurement": "Apigenin retention ratio (amount of apigenin stored at 50° C./amount of apigenin stored at −5° C.)", "setting": "pH 6, BHT 1 ppm", "value": 102, "unit": "%"}, {"measurement": "Apigenin retention ratio (amount of apigenin stored at 50° C./amount of apigenin stored at −5° C.)", "setting": "pH 6, BHT 10 ppm", "value": 98, "unit": "%"}, {"measurement": "Apigenin retention ratio (amount of apigenin stored at 50° C./amount of apigenin stored at −5° C.)", "setting": "pH 6, BHT 100 ppm", "value": 96, "unit": "%"}, {"measurement": "Apigenin retention ratio (amount of apigenin stored at 50° C./amount of apigenin stored at −5° C.)", "setting": "pH 6, BHT 500 ppm", "value": 96, "unit": "%"}, {"measurement": "Apigenin retention ratio (amount of apigenin stored at 50° C./amount of apigenin stored at −5° C.)", "setting": "pH 6.5, BHT 0 ppm", "value": 100, "unit": "%"}, {"measurement": "Apigenin retention ratio (amount of apigenin stored at 50° C./amount of apigenin stored at −5° C.)", "setting": "pH 6.5, BHT 1 ppm", "value": 94, "unit": "%"}, {"measurement": "Apigenin retention ratio (amount of apigenin stored at 50° C./amount of apigenin stored at −5° C.)", "setting": "pH 6.5, BHT 10 ppm", "value": 98, "unit": "%"}, {"measurement": "Apigenin retention ratio (amount of apigenin stored at 50° C./amount of apigenin stored at −5° C.)", "setting": "pH 6.5, BHT 100 ppm", "value": 96, "unit": "%"}, {"measurement": "Apigenin retention ratio (amount of apigenin stored at 50° C./amount of apigenin stored at −5° C.)", "setting": "pH 6.5, BHT 500 ppm", "value": 99, "unit": "%"}, {"measurement": "Apigenin retention ratio (amount of apigenin stored at 50° C./amount of apigenin stored at −5° C.)", "setting": "pH 7, BHT 0 ppm", "value": 96, "unit": "%"}, {"measurement": "Apigenin retention ratio (amount of apigenin stored at 50° C./amount of apigenin stored at −5° C.)", "setting": "pH 7, BHT 1 ppm", "value": 96, "unit": "%"}, {"measurement": "Apigenin retention ratio (amount of apigenin stored at 50° C./amount of apigenin stored at −5° C.)", "setting": "pH 7, BHT 10 ppm", "value": 98, "unit": "%"}, {"measurement": "Apigenin retention ratio (amount of apigenin stored at 50° C./amount of apigenin stored at −5° C.)", "setting": "pH 7, BHT 100 ppm", "value": 82, "unit": "%"}, {"measurement": "Apigenin retention ratio (amount of apigenin stored at 50° C./amount of apigenin stored at −5° C.)", "setting": "pH 7, BHT 500 ppm", "value": 35, "unit": "%"}, {"measurement": "Apigenin retention ratio (amount of apigenin stored at 50° C./amount of apigenin stored at −5° C.)", "setting": "pH 8, BHT 0 ppm", "value": 98, "unit": "%"}, {"measurement": "Apigenin retention ratio (amount of apigenin stored at 50° C./amount of apigenin stored at −5° C.)", "setting": "pH 8, BHT 1 ppm", "value": 99, "unit": "%"}, {"measurement": "Apigenin retention ratio (amount of apigenin stored at 50° C./amount of apigenin stored at −5° C.)", "setting": "pH 8, BHT 10 ppm", "value": 91, "unit": "%"}, {"measurement": "Apigenin retention ratio (amount of apigenin stored at 50° C./amount of apigenin stored at −5° C.)", "setting": "pH 8, BHT 100 ppm", "value": 73, "unit": "%"}, {"measurement": "Apigenin retention ratio (amount of apigenin stored at 50° C./amount of apigenin stored at −5° C.)", "setting": "pH 8, BHT 500 ppm", "value": 11, "unit": "%"}]}
